From PMC7481290, “Halogenation as a tool to tune antimicrobial activity of peptoids” (Scientific Reports, 2020)
≈ marks a conversion by molar mass, not a printed value. Non-standard residues stand in square brackets, D forms with d. Residues, ends and D or L forms follow the SMILES beside them. N(4-Br-benzyl)Gly = O=C(O)CNCc1ccc(Br)cc1; NBzl(4-I)Gly = O=C(O)CNCc1ccc(I)cc1; Nphe = O=C(O)CNCc1ccccc1; Nlys = NCCCCNCC(=O)O

Columns and labels:
[1] = tested on: E. coli ATCC 25922; type: cell-based, Escherichia coli; conditions: ATCC 25922, 18 h
In short: (§1)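 Broth microdilution per CLSI in MHB II, final inoculum 5 × 10^5 CFU/mL, with twofold peptoid dilutions. Incubation was 18 h at 37 °C in ambient air. MIC was taken as the lowest concentration without visible growth, from two experiments on different days in technical triplicate.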

[2] = tested on: selected bacterial strains (S. aureus, S. epidermidis, E. coli, P. aeruginosa); type: cell-based; conditions: for MICs, range across strains: range matches Gram-positive strains of Table 1
Procedure: All 36 peptoids were tested against seven bacterial strains: five Gram-positive (Staphylococcus aureus ATCC 25923 and ATCC 29213, methicillin-resistant Staphylococcus aureus USA 300, methicillin-resistant Staphylococcus epidermidis ET-024 and ATCC 51625) and two Gram-negative (Escherichia coli ATCC 25922, Pseudomonas aeruginosa PA01) (Table 1).
Bacterial growth inhibition was determined by using broth microdilution according to the Clinical Laboratory Standards Institute[43]. The antibacterial activity of peptoids was tested against S. aureus ATCC 25923, ATCC29213, and methicillin resistant S. aureus USA 300, methicillin resistant S. epidermidis ATCC 51625, a biofilm producing methicillin resistant S. epidermidis ET-024[44], P. aeruginosa Pa01 (H103), and E. coli ATCC 25922. Bacteria, grown on agar plates for 18 h at 37 °C, were diluted to ∼1 × 10^8 CFU/mL in Mueller‐Hinton Broth II (MHB II). Twofold serial dilutions of peptoids in MHB II were inoculated with bacteria to achieve a final concentration of 5 × 10^5 CFU/mL in polypropylene 96 U‐well microtiter plates (Corning 3,897; ThermoFisher Scientific, Roskilde), followed by incubation at 37 °C in ambient air for 18 h. The MIC values were determined as the lowest concentration showing no visible bacterial growth. Experiments were performed twice (in technical triplicates) on 2 different days.

[3] = tested on: Methicillin-resistant S. epidermidis ATCC 51625; type: cell-based, Staphylococcus epidermidis; conditions: for Minimal inhibitory concentration MRSE^e: ATCC 51625, 18 h
In short: as §1

[4] = tested on: Methicillin-resistant S. epidermidis ET-024; type: cell-based, Staphylococcus epidermidis; conditions: for Minimal inhibitory concentration MRSE^d: Methicillin-resistant ET-024, 18 h
In short: as §1

[5] = tested on: P. aeruginosa PA01 (H103); type: cell-based, Pseudomonas aeruginosa; conditions: H103, 18 h
In short: as §1

[6] = tested on: Methicillin-resistant S. aureus USA 300; type: cell-based, Staphylococcus aureus; conditions: USA 300, 18 h
In short: as §1

[7] = tested on: S. aureus ATCC 25923; type: cell-based, Staphylococcus aureus; conditions: for Minimal inhibitory concentration SA^a: ATCC 25923, 18 h
In short: as §1

[8] = tested on: S. aureus ATCC 29213; type: cell-based, Staphylococcus aureus; conditions: ATCC 29213, 18 h
In short: as §1

[9] = Critical aggregation concentration from SAXS fit analysis; type: physicochemical
Procedure: SAXS experiments of the 10-mer peptoids were performed at the automated BM29 bioSAXS beamline at the European Synchrotron Radiation Facility (ESRF) in Grenoble, France[45]. The data was obtained using an energy of 12.5 keV and a detector distance of 2.87 m, covering a q range ( q=4πsin(θ/2)/λ ), where θ is the scattering angle and λ is the X-ray wavelength) of about 0.0047 to 0.5 Å^−1. The data set was calibrated to an absolute intensity scale using water as a primary standard. 40 µL samples were run through a capillary using the flow mode of the automated sample changer. SAXS data was collected in ten successive frames of 0.5 s each to monitor radiation damage and the data reduction was done using the standard tool at BM29[47].
The SAXS experiments on the fully iodinated 6-, 8-, and 12-mers to determine the CAC of the compounds were performed using a Bruker NANOSTAR equipped with a microfocus X-ray source (IμS Cu, Incoatec, Germany) and a VÅNTEC-2000 detector. Raw scattering data was calibrated to absolute intensity scale using water as a primary standard and radially averaged in order to obtain the 1D scattered intensity profile as a function of the scattering vector, with a wavelength of 1.54 Å.
The modelling fit analysis of the scattering data is explained in detail in the supplementary information.

SMILES	Minimal inhibitory concentration EC^f [1] [µg/mL]	antimicrobial potency against the selected bacterial strains, in words [2]	MIC against MRSE ([3]; text b15, strain not named, values match ATCC 51625) [µg/mL]	Minimal inhibitory concentration MRSE^d [4] [µg/mL]	Minimal inhibitory concentration PA^g [5] [µg/mL]	Minimal inhibitory concentration MRSA^c [6] [µg/mL]	Minimal inhibitory concentration SA^a [7] [µg/mL]	Minimal inhibitory concentration SA^b [8] [µg/mL]	Minimal inhibitory concentration MRSE^e [3] [µg/mL]	critical aggregation concentration (CAC) [9] [mg/mL]	MICs, range across strains [2] [µg/mL]	fold increase of activity against MRSE ([4]; versus non-halogenated control of same length, values match ET-024) [fold]	fold increase of activity against S. aureus ([7]; versus non-halogenated control of same length) [fold]
NCCCCNCC(=O)N(CC(=O)N(CCCCN)CC(=O)N(CC(=O)N(CCCCN)CC(=O)N(CC(N)=O)Cc1ccccc1)Cc1ccccc1)Cc1ccccc1 [Compound 1] (H-[Nlys][Nphe][Nlys][Nphe][Nlys][Nphe]-NH2)	> 512	inactive	512 (≈ 607 µM)	512 (≈ 607 µM)	> 512	> 512	> 512	> 512					
NCCCCNCC(=O)N(CC(=O)N(CCCCN)CC(=O)N(CC(=O)N(CCCCN)CC(=O)N(CC(=O)N(CCCCN)CC(=O)N(CC(N)=O)Cc1ccccc1)Cc1ccccc1)Cc1ccccc1)Cc1ccccc1 [Compound 10] (H-[Nlys][Nphe][Nlys][Nphe][Nlys][Nphe][Nlys][Nphe]-NH2)	256 (≈ 229 µM)	inactive		256 (≈ 229 µM)	> 512	> 512	> 512	> 512	256 (≈ 229 µM)				
NCCCCNCC(=O)N(CC(=O)N(CCCCN)CC(=O)N(CC(=O)N(CCCCN)CC(=O)N(CC(=O)N(CCCCN)CC(=O)N(CC(=O)N(CCCCN)CC(=O)N(CC(N)=O)Cc1ccccc1)Cc1ccccc1)Cc1ccccc1)Cc1ccccc1)Cc1ccccc1 [Compound 19] (H-[Nlys][Nphe][Nlys][Nphe][Nlys][Nphe][Nlys][Nphe][Nlys][Nphe]-NH2)	256 (≈ 184 µM)	inactive		128 (≈ 91.8 µM)	512 (≈ 367 µM)	> 512	> 512	> 512	128 (≈ 91.8 µM)	> 5			
NCCCCNCC(=O)N(CC(=O)N(CCCCN)CC(=O)N(CC(=O)N(CCCCN)CC(=O)N(CC(=O)N(CCCCN)CC(=O)N(CC(=O)N(CCCCN)CC(=O)N(CC(N)=O)Cc1ccc(Br)cc1)Cc1ccc(Br)cc1)Cc1ccc(Br)cc1)Cc1ccc(Br)cc1)Cc1ccc(Br)cc1 [Compound 22] (H-[Nlys][N(4-Br-benzyl)Gly][Nlys][N(4-Br-benzyl)Gly][Nlys][N(4-Br-benzyl)Gly][Nlys][N(4-Br-benzyl)Gly][Nlys][N(4-Br-benzyl)Gly]-NH2)	64 (≈ 35.8 µM)			1 (≈ 0.559 µM)	> 512	4 (≈ 2.24 µM)	2 (≈ 1.12 µM)	2 (≈ 1.12 µM)	1 (≈ 0.559 µM)	2.3	1 to 4	128	> 256
NCCCCNCC(=O)N(CC(=O)N(CCCCN)CC(=O)N(CC(=O)N(CCCCN)CC(=O)N(CC(=O)N(CCCCN)CC(=O)N(CC(=O)N(CCCCN)CC(=O)N(CC(N)=O)Cc1ccc(I)cc1)Cc1ccc(I)cc1)Cc1ccc(I)cc1)Cc1ccc(I)cc1)Cc1ccc(I)cc1 [Compound 23] (H-[Nlys][NBzl(4-I)Gly][Nlys][NBzl(4-I)Gly][Nlys][NBzl(4-I)Gly][Nlys][NBzl(4-I)Gly][Nlys][NBzl(4-I)Gly]-NH2)	> 512	the activity was lost		4 (≈ 1.98 µM)	> 512	16 (≈ 7.91 µM)	32 (≈ 15.8 µM)	32 (≈ 15.8 µM)	8 (≈ 3.95 µM)	0.4			
NCCCCNCC(=O)N(CC(=O)N(CCCCN)CC(=O)N(CC(=O)N(CCCCN)CC(=O)N(CC(=O)N(CCCCN)CC(=O)N(CC(=O)N(CCCCN)CC(=O)N(CC(N)=O)Cc1ccc(Br)cc1)Cc1ccccc1)Cc1ccc(Br)cc1)Cc1ccccc1)Cc1ccc(Br)cc1 [Compound 26] (H-[Nlys][N(4-Br-benzyl)Gly][Nlys][Nphe][Nlys][N(4-Br-benzyl)Gly][Nlys][Nphe][Nlys][N(4-Br-benzyl)Gly]-NH2)	256 (≈ 157 µM)			1 (≈ 0.613 µM)	512 (≈ 314 µM)	8 (≈ 4.91 µM)	4 (≈ 2.45 µM)	4 (≈ 2.45 µM)	1 (≈ 0.613 µM)	> 5	1 to 8		
NCCCCNCC(=O)N(CC(=O)N(CCCCN)CC(=O)N(CC(=O)N(CCCCN)CC(=O)N(CC(=O)N(CCCCN)CC(=O)N(CC(=O)N(CCCCN)CC(=O)N(CC(=O)N(CCCCN)CC(=O)N(CC(N)=O)Cc1ccccc1)Cc1ccccc1)Cc1ccccc1)Cc1ccccc1)Cc1ccccc1)Cc1ccccc1 [Compound 28] (H-[Nlys][Nphe][Nlys][Nphe][Nlys][Nphe][Nlys][Nphe][Nlys][Nphe][Nlys][Nphe]-NH2)	128 (≈ 76.7 µM)	inactive		64 (≈ 38.3 µM)	128 (≈ 76.7 µM)	512 (≈ 307 µM)	> 512	512 (≈ 307 µM)	32 (≈ 19.2 µM)				
